US20240315994A1, “SMALL MOLECULE MODULATORS OF FERROPTOSIS” (ARPEGGIO BIOSCIENCES, INC., priority 2021, published 2024)

System: HT1080 cells (ATCC, cat #CCL-121)
Experiment: HT1080 CellTiter-Glo 2.0 IC50 assay of working examples
Assay type: cell-based
Settings: HT-1080, 24 hrs, cells plated with and without 1.5 μM ferrostatin-1, table does not say which, Table 7
Method: Biological evaluation of working examples A1-A47 and B1-B28 was performed in HT1080 cells (ATCC, cat #CCL-121) according to the procedure provided below.
• 1.1 Cells were harvested from flask into cell culture medium and then the cell number count was determined. • 1.2 The cells were suspended with 1.5 μM ferrostatin-1 and without ferrostatin-1. • 1.3 Cells were plated at a density of 1,500 cells per well in a 384-well black sided clear bottom plate, in 25 μL, using electronic multichannel pipette. • 1.4 Plates were covered with lid and spun for 1 min at 1000 rpm, then allowed to incubate overnight at 37° C. under 5% CO2.
• 2.1 Compounds were dissolved at 10 mM stock solution and 10 μl of diluted solution was transferred to a 384 LDV-plate (LABCYTE, LP-0200). A 3 fold, 11-point dilution was performed. • 2.2 Cells were treated with compounds by plate reformat Echo software and spun for 1 min at 1000 rpm. Then incubated at 37° C. for 24 hrs in a CO2 incubator.
• 3.1 The plates were removed from the incubator and allowed to equilibrate to room temperature, at least 30 minutes. • 3.2 CellTiter-Glo® 2.0 Reagent (Promega, G9242) was added (25 μL) to the assay plates and spun for 1 min at 1000 rpm. Then allowed to stand for about 20 minutes before reading luminescence signal on Envision. • 3.3 The IC50 calculations were determined with a nonlinear fit, variable slope (four parameters) log(inhibitor) vs. response model using GraphPad PRISM.

IC50 [nM] | SMILES
100 to 1000 | Cc1cc(C)cc(N(Cc2ccc(F)cc2)C(=O)CCl)c1 [Compound A1, 2-chloro-N-(3,5-dimethylphenyl)-N-[(4-fluorophenyl)methyl]acetamide]
10 to 100 | COc1ccc(CN(C(=O)CCl)c2cc(C)cc(C)c2)cc1 [Compound A2, 2-chloro-N-(3,5-dimethylphenyl)-N-[(4-methoxyphenyl)methyl]acetamide]
100 to 1000 | Cc1cc(C)cc(N(Cc2ccc(Cl)cc2)C(=O)CCl)c1 [Compound A4, 2-chloro-N-[(4-chlorophenyl)methyl]-N-(3,5-dimethylphenyl)acetamide]
10 to 100 | COc1cccc(CN(C(=O)CCl)c2cc(C)cc(C)c2)c1 [Compound A5, 2-chloro-N-(3,5-dimethylphenyl)-N-[(3-methoxyphenyl)methyl]acetamide]
100 to 1000 | Cc1cc(C)cc(N(Cc2ccccc2Cl)C(=O)CCl)c1 [Compound A6, 2-chloro-N-[(2-chlorophenyl)methyl]-N-(3,5-dimethylphenyl)acetamide]
10 to 100 | COc1ccccc1CN(C(=O)CCl)c1cc(C)cc(C)c1 [Compound A7, 2-chloro-N-(3,5-dimethylphenyl)-N-[(2-methoxyphenyl)methyl]acetamide]
10 to 100 | Cc1cccc(CN(C(=O)CCl)c2cc(C)cc(C)c2)c1 [Compound A8, 2-chloro-N-(3,5-dimethylphenyl)-N-(m-tolylmethyl)acetamide]
10 to 100 | Cc1cc(C)cc(N(Cc2cccc(Cl)c2)C(=O)CCl)c1 [Compound A9, 2-chloro-N-[(3-chlorophenyl)methyl]-N-(3,5-dimethylphenyl)acetamide]
100 to 1000 | Cc1ccc(CN(C(=O)CCl)c2cc(C)cc(C)c2)cc1 [Compound A10, 2-chloro-N-(3,5-dimethylphenyl)-N-(p-tolylmethyl)acetamide]
100 to 1000 | Cc1cc(C)cc(N(Cc2ccccc2C)C(=O)CCl)c1 [Compound A11, 2-chloro-N-(3,5-dimethylphenyl)-N-(o-tolylmethyl)acetamide]
100 to 1000 | O=C(CCl)N(Cc1ccc(F)cc1)C1CCCCC1 [Compound A12, 2-chloro-N-cyclohexyl-N-[(4-fluorophenyl)methyl]acetamide]
100 to 1000 | COc1cccc(N(Cc2ccc(F)cc2)C(=O)CCl)c1 [Compound A13, 2-chloro-N-[(4-fluorophenyl)methyl]-N-(3-methoxyphenyl)acetamide]
100 to 1000 | COc1cc(Cl)cc(N(Cc2ccc(F)cc2)C(=O)CCl)c1 [Compound A14, 2-chloro-N-(3-chloro-5-methoxy-phenyl)-N-[(4-fluorophenyl)methyl]acetamide]
1000 to 10000 | O=C(CCl)N(Cc1ccc(F)cc1)c1cc(F)cc(F)c1 [Compound A15, 2-chloro-N-(3,5-difluorophenyl)-N-[(4-fluorophenyl)methyl]acetamide]
100 to 1000 | O=C(CCl)N(Cc1ccc(F)cc1)c1cc(Cl)cc(Cl)c1 [Compound A16, 2-chloro-N-(3,5-dichlorophenyl)-N-[(4-fluorophenyl)methyl]acetamide]
100 to 1000 | COc1ccc(N(Cc2ccc(F)cc2)C(=O)CCl)cc1Cl [Compound A17, 2-chloro-N-(3-chloro-4-methoxy-phenyl)-N-[(4-fluorophenyl)methyl]acetamide]
100 to 1000 | O=C(CCl)N(Cc1ccc(F)cc1)c1cccc(Cl)c1 [Compound A18, 2-chloro-N-(3-chlorophenyl)-N-[(4-fluorophenyl)methyl]acetamide]
10 to 100 | COc1cc(OC)cc(N(Cc2ccc(C#N)cc2)C(=O)CCl)c1 [Compound A19, 2-chloro-N-[(4-cyanophenyl)methyl]-N-(3,5-dimethoxyphenyl)acetamide]
10 to 100 | COc1cc(OC)cc(N(Cc2cccc(F)c2F)C(=O)CCl)c1 [Compound A20, 2-chloro-N-[(2,3-difluorophenyl)methyl]-N-(3,5-dimethoxyphenyl)acetamide]
10 to 100 | COc1ccc(CN(C(=O)CCl)c2cc(OC)cc(OC)c2)cc1 [Compound A21, 2-chloro-N-(3,5-dimethoxyphenyl)-N-[(4-methoxyphenyl)methyl]acetamide]
100 to 1000 | O=C(CCl)N(Cc1ccc(F)cc1)c1ccc2ncccc2c1 [Compound A22, 2-chloro-N-[(4-fluorophenyl)methyl]-N-(6-quinolyl)acetamide]

IC50 [nM] | SMILES
10 to 100 | COc1cc(OC)cc(N(Cc2ccc(F)cc2Br)C(=O)CCl)c1 [Compound A23, N-[(2-bromo-4-fluoro-phenyl)methyl]-2-chloro-N-(3,5-dimethoxyphenyl)acetamide]
100 to 1000 | COc1cc(OC)cc(N(Cc2ccc(O)cc2)C(=O)CCl)c1 [Compound A24, 2-chloro-N-(3,5-dimethoxyphenyl)-N-[(4-hydroxyphenyl)methyl]acetamide]
100 to 1000 | COc1cc(C)cc(N(Cc2ccc(F)cc2)C(=O)CCl)c1 [Compound A25, 2-chloro-N-[(4-fluorophenyl)methyl]-N-(3-methoxy-5-methyl-phenyl)acetamide]
10 to 100 | COc1cc(OC)cc(N(Cc2c(Cl)cc(F)cc2Cl)C(=O)CCl)c1 [Compound A26, 2-chloro-N-[(2,6-dichloro-4-fluoro-phenyl)methyl]-N-(3,5-dimethoxyphenyl)acetamide]
10 to 100 | COc1cc(OC)cc(N(Cc2ccc(F)cc2C(F)(F)F)C(=O)CCl)c1 [Compound A27, 2-chloro-N-(3,5-dimethoxyphenyl)-N-[[4-fluoro-2-(trifluoro-methyl)phenyl]methyl]acetamide]
10 to 100 | COc1cc(OC)cc(N(Cc2cc(C#N)ccc2F)C(=O)CCl)c1 [Compound A28, 2-chloro-N-[(5-cyano-2-fluoro-phenyl)methyl]-N-(3,5-dimethoxyphenyl)acetamide]
10 to 100 | COc1cc(N(Cc2ccc(F)cc2)C(=O)CCl)ccc1C [Compound A29, 2-chloro-N-[(4-fluorophenyl)methyl]-N-(3-methoxy-4-methyl-phenyl)acetamide]
≤ 10 | COc1cc(OC)cc(N(Cc2c(C)cc(F)cc2C)C(=O)CCl)c1 [Compound A30, 2-chloro-N-(3,5-dimethoxyphenyl)-N-[(4-fluoro-2,6-dimethyl-phenyl)methyl]acetamide]
10 to 100 | COc1cc(OC)cc(N(Cc2cccc(C(F)(F)F)c2F)C(=O)CCl)c1 [Compound A31, 2-chloro-N-(3,5-dimethoxyphenyl)-N-[[2-fluoro-3-(trifluoro-methyl)phenyl]methyl]acetamide]
1000 to 10000 | COc1cccc(F)c1N(Cc1ccc(F)cc1)C(=O)CCl [Compound A32, 2-chloro-N-(2-fluoro-6-methoxy-phenyl)-N-[(4-fluorophenyl)methyl]acetamide]
≤ 10 | COc1cc(OC)cc(N(Cc2ccc(F)c(OC)c2)C(=O)CCl)c1 [Compound A33, 2-chloro-N-(3,5-dimethoxyphenyl)-N-[(4-fluoro-3-methoxy-phenyl)methyl]acetamide]
100 to 1000 | O=C(CCl)N(Cc1ccc(F)cc1)c1cc(O)cc(Cl)c1 [Compound A34, 2-chloro-N-(3-chloro-5-hydroxy-phenyl)-N-[(4-fluorophenyl)methyl]acetamide]
100 to 1000 | COc1cccc(N(Cc2ccc(F)cc2)C(=O)CCl)c1Cl [Compound A35, 2-chloro-N-(2-chloro-3-methoxy-phenyl)-N-[(4-fluorophenyl)methyl]acetamide]
1000 to 10000 | COc1ccc(N(Cc2ccc(F)cc2)C(=O)CCl)c(C#N)c1 [Compound A36, 2-chloro-N-(2-cyano-4-methoxy-phenyl)-N-[(4-fluorophenyl)methyl]acetamide]
100 to 1000 | COc1ccc(Cl)c(N(Cc2ccc(F)cc2)C(=O)CCl)c1 [Compound A37, 2-chloro-N-(2-chloro-5-methoxy-phenyl)-N-[(4-fluorophenyl)methyl]acetamide]
≤ 10 | COc1cc(OC)cc(N(Cc2ccc(Br)c(F)c2F)C(=O)CCl)c1 [Compound A38, N-[(4-bromo-2,3-difluoro-phenyl)methyl]-2-chloro-N-(3,5-dimethoxyphenyl)acetamide]
1000 to 10000 | O=C(CCl)N(Cc1ccc(F)cc1)c1cnc2[nH]nc(Br)c2c1 [Compound A39, N-(3-bromo-1H-pyrazolo[3,4-b]pyridin-5-yl)-2-chloro-N-[(4-fluorophenyl)methyl]acetamide]
10 to 100 | COc1c(C)cc(N(Cc2ccc(F)cc2)C(=O)CCl)cc1C [Compound A40, 2-chloro-N-[(4-fluorophenyl)methyl]-N-(4-methoxy-3,5-dimethyl-phenyl)acetamide]
> 10000 | Cc1cc(N(Cc2ccc(F)cc2)C(=O)CCl)cc(C)c1O [Compound A41, 2-chloro-N-[(4-fluorophenyl)methyl]-N-(4-hydroxy-3,5-dimethyl-phenyl)acetamide]
100 to 1000 | Cc1c(Cl)ccc(N(Cc2ccc(F)cc2)C(=O)CCl)c1Cl [Compound A42, 2-chloro-N-(2,4-dichloro-3-methyl-phenyl)-N-[(4-fluorophenyl)methyl]acetamide]

SMILES | IC50 [nM]
COc1cc(OC)cc(N(Cc2ccc(F)cc2)C(=O)CCl)c1 [Compound A3, 2-chloro-N-(3,5-dimethoxyphenyl)-N-[(4-fluorophenyl)methyl]acetamide] | 10 to 100
